Experimental data as given in patent US20200024278A1, “COMPOSITION COMPRISING ANTIBIOTIC COMPOUND AND AN HETEROCYCLIC COMPOUND AND THEIR USE IN PREVENTING OR TREATING BACTERIAL INFECTIONS” (MUTABILIS, priority 2016, published 2020).

Tests used:
Test in all cases: MIC, broth microdilution (CLSI), substance alone or ATB combined with compound at 4 or 8 μg/mL
ECO 190317 = assay type: cell-based, E. coli; conditions: ECO 190317; for MIC ATB combined with Example: Example @8 μg/ml
Outline: (§1)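 CLSI broth microdilution in cation-adjusted Mueller-Hinton broth, 5·10^5 CFU/mL log-phase inoculum, 16-20 h at 35 °C in ambient air. Fosfomycin assays supplemented with 25 μg/ml glucose-6-phosphate.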

ECO UFR39 = assay type: cell-based, E. coli; conditions: ECO UFR39; for MIC ATB combined with Example: Example @8 μg/ml; for MIC ATB combined with Example compound: compound @8 μg/ml
Outline: as §1

KPN 6299 = assay type: cell-based, K. pneumoniae; conditions: for MIC ATB combined with Example: Example @8 μg/ml
Outline: as §1

KPN BAA-1898 = assay type: cell-based, K. pneumoniae; conditions: KPN BAA-1898; for MIC ATB combined with Example: Example @8 μg/ml
Outline: as §1

KPN UFR42 = assay type: cell-based, K. pneumoniae; conditions: KPN UFR42; for MIC ATB combined with Example: Example @8 μg/ml; for MIC ATB combined with Example compound: compound @8 μg/ml
Outline: as §1

ECL P99 = assay type: cell-based, E. cloacae; conditions: ECL P99; for MIC ATB combined with Example: Example @8 μg/ml
Outline: as §1

PAE 105250 = assay type: cell-based, P. aeruginosa; conditions: PAE 105250; for MIC ATB combined with Example: Example @8 μg/ml; for MIC ATB combined with Example compound: compound @8 μg/ml
Outline: as §1

PAE UFR48 = assay type: cell-based, P. aeruginosa; conditions: PAE UFR48; for MIC ATB combined with Example: Example @8 μg/ml; for MIC ATB combined with Example compound: compound @8 μg/ml
Outline: as §1

PAE UFR90 = assay type: cell-based, P. aeruginosa; conditions: PAE UFR90; for MIC ATB combined with Example: Example @8 μg/ml; for MIC ATB combined with Example compound: compound @8 μg/ml
Outline: as §1

SAU 29213 = assay type: cell-based, S. aureus; conditions: for MIC ATB combined with Example / MIC ATB combined with Example compound: SAU 29213; for MIC ATB combined with Example: Example @8 μg/ml; for MIC ATB combined with Example compound: compound @8 μg/ml
Outline: as §1

SPN 49619 = assay type: cell-based, S. pneumoniae; conditions: SPN 49619; for MIC ATB combined with Example: Example @8 μg/ml; for MIC ATB combined with Example compound: compound @8 μg/ml
Outline: as §1

ABA UFR151 = assay type: cell-based, A. baumannii; conditions: Acinetobacter baumannii, substance alone, read-out: MIC
Outline: as §1

ABA UFR160 = assay type: cell-based, A. baumannii; conditions: Acinetobacter baumannii, substance alone, read-out: MIC
Outline: as §1

[1] = Escherichia coli, substance alone, read-out: MIC
[2] = Pseudomonas aeruginosa, substance alone, read-out: MIC

Compound: O=C1N2CC(n3cccn3)=CC(C2)N1OS(=O)(=O)[O-].[Na+] (stereo not drawn) [Example 11, sodium (7-oxo-3-pyrazol-1-yl-1,6-diazabicyclo[3.2.1]oct-3-en-6-yl) sulfate]
- MIC ATB combined with Example (ECO 190317; ATB ATM): <0.031 µg/mL
- MIC ATB combined with Example (ECO 190317; ATB FEP): <0.031 µg/mL
- MIC ATB combined with Example (ECO 190317; ATB FOS): <0.125 µg/mL
- MIC ATB combined with Example (ECO 190317; ATB MEM): <0.031 µg/mL
- MIC ATB combined with Example (ECO 190317; ATB PIP): <0.031 µg/mL
- MIC (ECO 190317; [1]): 1 µg/mL
- MIC ATB combined with Example compound (ECO 190317; MIC of CIP, compound @8 μg/ml): <0.031 µg/mL
- MIC ATB combined with Example (ECO UFR39; ATB ATM): <0.031 µg/mL
- MIC ATB combined with Example (ECO UFR39; ATB FEP): <0.031 µg/mL
- MIC ATB combined with Example (ECO UFR39; ATB FOS): <0.125 µg/mL
- MIC ATB combined with Example (ECO UFR39; ATB MEM): <0.031 µg/mL
- MIC ATB combined with Example (ECO UFR39; ATB PIP): <0.031 µg/mL
- MIC (ECO UFR39; [1]): 4 µg/mL
- MIC ATB combined with Example compound (ECO UFR39; MIC of CIP): <0.031 µg/mL
- MIC ATB combined with Example compound (ECO UFR39; MIC of CPO): <0.031 µg/mL
- MIC ATB combined with Example (KPN 6299; ATB ATM): <0.031 µg/mL
- MIC ATB combined with Example (KPN 6299; ATB FEP): <0.031 µg/mL
- MIC ATB combined with Example (KPN 6299; ATB FOS): <0.125 µg/mL
- MIC ATB combined with Example (KPN 6299; ATB MEM): <0.031 µg/mL
- MIC ATB combined with Example (KPN 6299; ATB PIP): <=0.031 μg/mL
- MIC ATB combined with Example compound (KPN 6299; MIC of CIP, compound @8 μg/ml): <=0.031 μg/mL
- MIC ATB combined with Example (KPN BAA-1898; ATB ATM): <0.031 µg/mL
- MIC ATB combined with Example (KPN BAA-1898; ATB FEP): <0.031 µg/mL
- MIC ATB combined with Example (KPN BAA-1898; ATB FOS): <=0.125 μg/mL
- MIC ATB combined with Example (KPN BAA-1898; ATB MEM): <=0.031 μg/mL
- MIC ATB combined with Example (KPN BAA-1898; ATB PIP): <0.031 µg/mL
- MIC (KPN BAA-1898; Klebsiella pneumoniae, BAA1898, substance alone, read-out: MIC): 8 µg/mL
- MIC ATB combined with Example compound (KPN BAA-1898; MIC of CIP, compound @8 μg/ml): <0.031 µg/mL
- MIC ATB combined with Example (KPN UFR42; ATB ATM): <0.031 µg/mL
- MIC ATB combined with Example (KPN UFR42; ATB FEP): <0.031 µg/mL
- MIC ATB combined with Example (KPN UFR42; ATB FOS): <0.125 µg/mL
- MIC ATB combined with Example (KPN UFR42; ATB MEM): 0.5 µg/mL
- MIC ATB combined with Example (KPN UFR42; ATB PIP): >32 µg/mL
- MIC (KPN UFR42; Klebsiella pneumoniae, substance alone, read-out: MIC): 8 µg/mL
- MIC ATB combined with Example compound (KPN UFR42; MIC of CIP): 32 µg/mL
- MIC ATB combined with Example compound (KPN UFR42; MIC of CPO): <0.031 µg/mL
- MIC ATB combined with Example (ECL P99; ATB ATM): <0.031 µg/mL
- MIC ATB combined with Example (ECL P99; ATB FEP): <0.031 µg/mL
- MIC ATB combined with Example (ECL P99; ATB FOS): <0.125 µg/mL
- MIC ATB combined with Example (ECL P99; ATB MEM): <0.031 µg/mL
- MIC ATB combined with Example (ECL P99; ATB PIP): <0.031 µg/mL
- MIC (ECL P99; Enterobacter cloacae, substance alone, read-out: MIC): 4 µg/mL
- MIC ATB combined with Example compound (ECL P99; MIC of CIP, compound @8 μg/ml): <0.031 µg/mL
- MIC ATB combined with Example (PAE 105250; ATB ATM): 16 µg/mL
- MIC ATB combined with Example (PAE 105250; ATB FEP): 8 µg/mL
- MIC ATB combined with Example (PAE 105250; ATB FOS): >128 µg/mL
- MIC ATB combined with Example (PAE 105250; ATB MEM): 2 µg/mL
- MIC ATB combined with Example (PAE 105250; ATB PIP): 32 µg/mL
- MIC ATB combined with Example compound (PAE 105250; MIC of CIP): 0.125 µg/mL
- MIC ATB combined with Example compound (PAE 105250; MIC of CPO): 16 µg/mL
- MIC (PAE 105250; [2]): > 32 µg/mL
- MIC ATB combined with Example (PAE UFR48; ATB ATM): 8 µg/mL
- MIC ATB combined with Example (PAE UFR48; ATB FEP): 32 µg/mL
- MIC ATB combined with Example (PAE UFR48; ATB FOS): 32 µg/mL
- MIC ATB combined with Example (PAE UFR48; ATB MEM): 0.25 µg/mL
- MIC ATB combined with Example (PAE UFR48; ATB PIP): 16 µg/mL
- MIC ATB combined with Example compound (PAE UFR48; MIC of CIP): 4 µg/mL
- MIC ATB combined with Example compound (PAE UFR48; MIC of CPO): >32 µg/mL
- MIC (PAE UFR48; [2]): > 32 µg/mL
- MIC ATB combined with Example (PAE UFR90; ATB ATM): 4 µg/mL
- MIC ATB combined with Example (PAE UFR90; ATB FEP): 2 µg/mL
- MIC ATB combined with Example (PAE UFR90; ATB FOS): 8 µg/mL
- MIC ATB combined with Example (PAE UFR90; ATB MEM): 1 µg/mL
- MIC ATB combined with Example (PAE UFR90; ATB PIP): 16 µg/mL
- MIC ATB combined with Example compound (PAE UFR90; MIC of CIP): 1 µg/mL
- MIC ATB combined with Example compound (PAE UFR90; MIC of CPO): 2 µg/mL
- MIC (PAE UFR90; [2]): > 32 µg/mL
- MIC ATB combined with Example (SAU 29213; ATB ATM): >32 µg/mL
- MIC ATB combined with Example (SAU 29213; ATB FEP): 0.5 µg/mL
- MIC ATB combined with Example (SAU 29213; ATB FOS): <=0.125 μg/mL
- MIC ATB combined with Example (SAU 29213; ATB MEM): <=0.031 μg/mL
- MIC ATB combined with Example (SAU 29213; ATB PIP): 0.125 µg/mL
- MIC ATB combined with Example compound (SAU 29213; MIC of CIP): <=0.031 μg/mL
- MIC ATB combined with Example compound (SAU 29213; MIC of CLI): <0.0010 µg/mL
- MIC ATB combined with Example compound (SAU 29213; MIC of CPO): <0.031 µg/mL
- MIC ATB combined with Example compound (SAU 29213; MIC of DAP): <=0.0020 μg/mL
- MIC ATB combined with Example compound (SAU 29213; MIC of ERY): <0.0020 µg/mL
- MIC ATB combined with Example compound (SAU 29213; MIC of LZD): <0.0078 µg/mL
- MIC ATB combined with Example compound (SAU 29213; MIC of RIF): 0.002 µg/mL
- MIC ATB combined with Example compound (SAU 29213; MIC of SYN): 0.125 µg/mL
- MIC ATB combined with Example compound (SAU 29213; MIC of VAN): <0.0039 µg/mL
- MIC (SAU 29213; Staphylococcus aureus, substance alone, SAU 29213 (MSSA 29213), read-out: MIC): 8 µg/mL
- MIC ATB combined with Example (SPN 49619; ATB ATM): >32 µg/mL
- MIC ATB combined with Example (SPN 49619; ATB FEP): <=0.031 μg/mL
- MIC ATB combined with Example (SPN 49619; ATB FOS): 8 µg/mL
- MIC ATB combined with Example (SPN 49619; ATB MEM): <=0.031 μg/mL
- MIC ATB combined with Example (SPN 49619; ATB PIP): 0.5 µg/mL
- MIC ATB combined with Example compound (SPN 49619; MIC of CIP): <0.031 µg/mL
- MIC ATB combined with Example compound (SPN 49619; MIC of CLI): 0.0078 µg/mL
- MIC ATB combined with Example compound (SPN 49619; MIC of CPO): <=0.031 μg/mL
- MIC ATB combined with Example compound (SPN 49619; MIC of DAP): 0.125 µg/mL
- MIC ATB combined with Example compound (SPN 49619; MIC of ERY): 0.0078 µg/mL
- MIC ATB combined with Example compound (SPN 49619; MIC of LZD): 0.25 µg/mL
- MIC ATB combined with Example compound (SPN 49619; MIC of RIF): 0.002 µg/mL
- MIC ATB combined with Example compound (SPN 49619; MIC of SYN): 0.25 µg/mL
- MIC ATB combined with Example compound (SPN 49619; MIC of VAN): 0.031 µg/mL
- MIC (SPN 49619; Streptococcus pneumoniae, substance alone, read-out: MIC): 16 µg/mL
- MIC (ABA UFR151): > 32 µg/mL
- MIC (ABA UFR160): > 32 µg/mL
